Parameters in all cases: species or system mixed lysate of K562, MV4-11, THP-1, NCI-H1155
The target of experiment [1] is T1, Dual specificity mitogen-activated protein kinase kinase 5 ; MAP2K5 ; Q13163 (Homo sapiens, UniProt Q13163).
T1 sequence (Q13163 1-448): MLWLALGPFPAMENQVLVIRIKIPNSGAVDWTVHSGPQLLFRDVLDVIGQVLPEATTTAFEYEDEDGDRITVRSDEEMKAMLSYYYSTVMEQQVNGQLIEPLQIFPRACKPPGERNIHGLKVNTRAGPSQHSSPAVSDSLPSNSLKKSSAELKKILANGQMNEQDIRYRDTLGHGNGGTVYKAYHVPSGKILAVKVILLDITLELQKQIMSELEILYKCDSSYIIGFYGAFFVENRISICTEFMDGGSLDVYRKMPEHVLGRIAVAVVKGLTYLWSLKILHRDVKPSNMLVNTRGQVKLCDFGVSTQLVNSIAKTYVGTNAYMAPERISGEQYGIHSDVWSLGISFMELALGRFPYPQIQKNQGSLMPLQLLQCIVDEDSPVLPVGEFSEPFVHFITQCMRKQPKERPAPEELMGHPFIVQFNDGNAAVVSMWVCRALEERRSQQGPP
The following applies: DIA-MS residual binding; binder.

In experiment [2] the target is T2, Ephrin type-B receptor 2 ; EPHB2 ; P29323 (Homo sapiens, UniProt P29323).
T2 sequence (P29323 1-1055): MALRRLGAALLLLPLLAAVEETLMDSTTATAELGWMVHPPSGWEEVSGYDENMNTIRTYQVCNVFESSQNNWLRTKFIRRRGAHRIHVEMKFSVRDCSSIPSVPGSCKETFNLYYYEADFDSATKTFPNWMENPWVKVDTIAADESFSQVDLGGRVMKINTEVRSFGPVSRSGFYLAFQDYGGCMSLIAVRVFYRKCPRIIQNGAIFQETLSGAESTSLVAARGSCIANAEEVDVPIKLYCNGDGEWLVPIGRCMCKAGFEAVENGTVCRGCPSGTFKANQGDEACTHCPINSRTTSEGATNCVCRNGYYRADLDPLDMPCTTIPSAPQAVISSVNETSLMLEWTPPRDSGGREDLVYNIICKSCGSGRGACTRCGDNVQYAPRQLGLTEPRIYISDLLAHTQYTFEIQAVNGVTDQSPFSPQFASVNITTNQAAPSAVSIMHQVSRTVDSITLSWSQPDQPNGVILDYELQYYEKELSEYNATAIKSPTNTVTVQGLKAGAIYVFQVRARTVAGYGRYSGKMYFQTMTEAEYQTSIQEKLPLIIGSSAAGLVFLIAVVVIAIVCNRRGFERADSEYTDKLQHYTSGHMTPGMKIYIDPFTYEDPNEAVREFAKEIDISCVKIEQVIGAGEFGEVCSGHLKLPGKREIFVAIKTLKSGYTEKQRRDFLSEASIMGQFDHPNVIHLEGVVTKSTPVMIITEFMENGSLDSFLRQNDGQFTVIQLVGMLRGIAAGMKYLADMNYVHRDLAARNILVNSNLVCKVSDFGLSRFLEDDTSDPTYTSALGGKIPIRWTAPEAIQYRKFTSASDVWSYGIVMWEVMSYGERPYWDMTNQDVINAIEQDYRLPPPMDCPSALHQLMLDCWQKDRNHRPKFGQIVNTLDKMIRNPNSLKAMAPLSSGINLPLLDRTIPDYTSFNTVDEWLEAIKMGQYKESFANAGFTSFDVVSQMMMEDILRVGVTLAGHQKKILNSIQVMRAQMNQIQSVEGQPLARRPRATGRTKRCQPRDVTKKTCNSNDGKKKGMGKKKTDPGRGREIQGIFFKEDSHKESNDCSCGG
As to conditions: DIA-MS residual binding; binder.

For experiment [3], the target named is Isoform 3 of Membrane-associated tyrosine- and threonine-specific cdc2 ; PKMYT1-3 ; Q99640-3 (Homo sapiens, UniProt Q99640). As to conditions: binder.
Isoform 3 of Membrane-associated tyrosine- and threonine-specific cdc2 ; PKMYT1-3 ; Q99640-3, sequence (Q99640 whole entry, canonical isoform, one chain of several): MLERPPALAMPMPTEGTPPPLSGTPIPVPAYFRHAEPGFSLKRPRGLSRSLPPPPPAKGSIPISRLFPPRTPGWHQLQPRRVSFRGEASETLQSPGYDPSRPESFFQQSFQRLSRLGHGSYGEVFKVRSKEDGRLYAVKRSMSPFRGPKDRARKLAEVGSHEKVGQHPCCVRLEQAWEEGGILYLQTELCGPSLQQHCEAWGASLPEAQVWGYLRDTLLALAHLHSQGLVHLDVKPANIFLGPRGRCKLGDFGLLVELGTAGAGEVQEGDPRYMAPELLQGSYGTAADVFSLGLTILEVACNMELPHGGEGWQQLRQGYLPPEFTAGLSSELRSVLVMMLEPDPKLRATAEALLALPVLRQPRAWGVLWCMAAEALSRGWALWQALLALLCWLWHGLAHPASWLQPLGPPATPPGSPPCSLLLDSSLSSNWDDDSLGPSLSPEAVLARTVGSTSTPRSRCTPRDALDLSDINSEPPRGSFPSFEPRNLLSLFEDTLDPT
The target in experiment [4] is Isoform 6 of Tyrosine-protein kinase ABL2 ; ABL2-6 ; P42684-6 (Homo sapiens, UniProt P42684). As to conditions: DIA-MS residual binding; binder.
Isoform 6 of Tyrosine-protein kinase ABL2 ; ABL2-6 ; P42684-6, sequence (P42684 whole entry, canonical isoform): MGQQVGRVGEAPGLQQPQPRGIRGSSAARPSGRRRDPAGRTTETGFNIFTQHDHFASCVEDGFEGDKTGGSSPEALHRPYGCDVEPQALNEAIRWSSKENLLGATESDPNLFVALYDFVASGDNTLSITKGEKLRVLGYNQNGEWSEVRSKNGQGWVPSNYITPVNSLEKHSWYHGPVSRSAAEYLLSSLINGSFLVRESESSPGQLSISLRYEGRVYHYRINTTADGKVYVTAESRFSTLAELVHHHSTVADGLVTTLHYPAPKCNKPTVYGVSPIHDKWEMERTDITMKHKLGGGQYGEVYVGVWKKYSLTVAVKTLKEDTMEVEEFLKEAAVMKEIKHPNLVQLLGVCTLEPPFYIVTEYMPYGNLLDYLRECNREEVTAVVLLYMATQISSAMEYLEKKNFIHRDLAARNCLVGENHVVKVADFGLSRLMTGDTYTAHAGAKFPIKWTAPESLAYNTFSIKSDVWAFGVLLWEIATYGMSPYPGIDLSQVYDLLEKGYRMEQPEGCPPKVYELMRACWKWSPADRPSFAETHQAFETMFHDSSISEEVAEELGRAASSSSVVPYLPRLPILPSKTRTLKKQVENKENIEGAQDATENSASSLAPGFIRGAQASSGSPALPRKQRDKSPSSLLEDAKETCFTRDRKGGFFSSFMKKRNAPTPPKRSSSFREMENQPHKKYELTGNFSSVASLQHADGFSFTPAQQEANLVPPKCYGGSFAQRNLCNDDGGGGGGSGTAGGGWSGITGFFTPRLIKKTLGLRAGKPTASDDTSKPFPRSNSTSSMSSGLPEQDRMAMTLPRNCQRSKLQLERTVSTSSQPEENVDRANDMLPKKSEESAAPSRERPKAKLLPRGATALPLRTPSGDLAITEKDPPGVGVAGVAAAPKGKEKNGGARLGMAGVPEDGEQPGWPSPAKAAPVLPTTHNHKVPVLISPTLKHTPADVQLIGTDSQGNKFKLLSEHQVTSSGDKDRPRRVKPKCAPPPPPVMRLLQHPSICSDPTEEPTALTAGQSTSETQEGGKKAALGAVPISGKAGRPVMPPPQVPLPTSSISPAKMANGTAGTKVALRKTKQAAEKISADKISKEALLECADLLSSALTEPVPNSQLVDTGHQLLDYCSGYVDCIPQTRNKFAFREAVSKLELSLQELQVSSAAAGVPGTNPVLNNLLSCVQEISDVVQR
For experiment [5], the target named is Phosphatidylinositol 4-kinase alpha ; PI4KA ; P42356 (Homo sapiens, UniProt P42356). The following applies: DIA-MS residual binding; binder.
Phosphatidylinositol 4-kinase alpha ; PI4KA ; P42356, sequence (P42356 whole entry): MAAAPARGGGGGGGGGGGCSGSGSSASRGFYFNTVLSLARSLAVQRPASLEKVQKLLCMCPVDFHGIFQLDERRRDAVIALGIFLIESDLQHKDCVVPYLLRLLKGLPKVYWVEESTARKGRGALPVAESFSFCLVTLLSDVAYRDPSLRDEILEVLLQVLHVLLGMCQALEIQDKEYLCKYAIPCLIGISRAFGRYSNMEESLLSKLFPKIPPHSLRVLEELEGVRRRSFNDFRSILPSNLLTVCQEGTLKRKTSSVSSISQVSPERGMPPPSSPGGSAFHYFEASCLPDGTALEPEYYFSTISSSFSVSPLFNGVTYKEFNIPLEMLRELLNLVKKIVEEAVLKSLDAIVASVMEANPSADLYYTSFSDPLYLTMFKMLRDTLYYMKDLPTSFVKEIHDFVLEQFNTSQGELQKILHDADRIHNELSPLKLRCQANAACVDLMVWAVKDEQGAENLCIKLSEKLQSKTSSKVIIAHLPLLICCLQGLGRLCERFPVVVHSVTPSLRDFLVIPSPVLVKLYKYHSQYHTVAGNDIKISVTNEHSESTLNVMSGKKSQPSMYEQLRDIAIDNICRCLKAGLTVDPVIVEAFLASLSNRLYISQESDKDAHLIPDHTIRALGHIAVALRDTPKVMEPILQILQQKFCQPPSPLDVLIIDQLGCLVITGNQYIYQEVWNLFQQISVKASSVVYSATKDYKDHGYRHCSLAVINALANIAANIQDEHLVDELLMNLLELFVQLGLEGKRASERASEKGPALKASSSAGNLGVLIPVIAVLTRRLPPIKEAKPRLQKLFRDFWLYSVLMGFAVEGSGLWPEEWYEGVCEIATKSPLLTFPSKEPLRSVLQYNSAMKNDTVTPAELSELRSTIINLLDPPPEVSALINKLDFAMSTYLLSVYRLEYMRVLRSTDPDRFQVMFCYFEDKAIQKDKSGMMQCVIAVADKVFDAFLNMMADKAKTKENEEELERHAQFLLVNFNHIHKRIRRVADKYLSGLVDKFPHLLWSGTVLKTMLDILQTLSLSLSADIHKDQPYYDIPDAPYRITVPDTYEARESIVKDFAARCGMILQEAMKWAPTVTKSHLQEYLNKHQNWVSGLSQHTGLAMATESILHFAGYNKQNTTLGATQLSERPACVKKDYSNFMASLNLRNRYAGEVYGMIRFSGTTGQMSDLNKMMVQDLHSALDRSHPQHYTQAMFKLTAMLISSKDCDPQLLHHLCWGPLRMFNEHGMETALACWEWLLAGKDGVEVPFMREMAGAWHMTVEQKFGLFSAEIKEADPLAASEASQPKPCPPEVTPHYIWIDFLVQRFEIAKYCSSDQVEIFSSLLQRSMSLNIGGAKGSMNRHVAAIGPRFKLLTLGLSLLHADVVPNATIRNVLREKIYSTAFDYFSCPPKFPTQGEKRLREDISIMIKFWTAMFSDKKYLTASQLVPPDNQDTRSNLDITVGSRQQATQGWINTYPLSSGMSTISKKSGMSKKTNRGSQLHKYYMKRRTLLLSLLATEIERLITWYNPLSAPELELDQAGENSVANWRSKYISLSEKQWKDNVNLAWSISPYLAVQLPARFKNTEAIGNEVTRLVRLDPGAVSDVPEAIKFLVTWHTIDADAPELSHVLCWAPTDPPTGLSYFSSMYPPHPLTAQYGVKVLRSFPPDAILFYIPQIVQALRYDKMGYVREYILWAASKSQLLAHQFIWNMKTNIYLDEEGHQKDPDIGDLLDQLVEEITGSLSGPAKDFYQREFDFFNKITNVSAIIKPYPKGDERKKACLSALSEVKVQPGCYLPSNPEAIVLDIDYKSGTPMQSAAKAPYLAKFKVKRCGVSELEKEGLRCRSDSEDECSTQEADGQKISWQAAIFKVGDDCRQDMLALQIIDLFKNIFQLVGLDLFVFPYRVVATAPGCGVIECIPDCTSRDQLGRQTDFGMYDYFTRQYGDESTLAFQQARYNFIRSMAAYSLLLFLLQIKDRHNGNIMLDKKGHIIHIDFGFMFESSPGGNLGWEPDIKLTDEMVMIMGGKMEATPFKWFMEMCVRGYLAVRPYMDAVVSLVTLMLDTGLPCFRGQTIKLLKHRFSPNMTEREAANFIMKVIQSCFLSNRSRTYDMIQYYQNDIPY
The target of experiment [6] is Serine/threonine-protein kinase 25 ; STK25 ; O00506 (Homo sapiens, UniProt O00506). The following applies: binder.
Serine/threonine-protein kinase 25 ; STK25 ; O00506, sequence (O00506 whole entry, one chain of several): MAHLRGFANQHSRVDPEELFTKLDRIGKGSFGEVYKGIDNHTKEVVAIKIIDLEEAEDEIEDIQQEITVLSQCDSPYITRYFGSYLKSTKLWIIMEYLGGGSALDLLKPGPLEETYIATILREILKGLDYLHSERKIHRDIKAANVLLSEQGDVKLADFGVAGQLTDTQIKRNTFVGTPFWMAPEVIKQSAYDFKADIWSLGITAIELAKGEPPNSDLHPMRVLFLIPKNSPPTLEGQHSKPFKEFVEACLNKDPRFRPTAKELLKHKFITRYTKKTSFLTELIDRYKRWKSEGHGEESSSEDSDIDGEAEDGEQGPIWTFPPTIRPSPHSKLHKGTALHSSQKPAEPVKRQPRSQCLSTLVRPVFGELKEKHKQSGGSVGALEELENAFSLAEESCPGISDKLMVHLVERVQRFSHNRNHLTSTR

For `Cc1nc(Nc2ncc(C(=O)Nc3c(C)cccc3Cl)s2)cc(N2CCN(CCO)CC2)n1` [dasatinib], the “DIA-MS / % Intensity (30 µM/DMSO)” value in experiment [1] is 35.82%; in experiment [2], 3.776%; in experiment [3], 30.34%; in experiment [4], 0.2688%; in experiment [5] it was 31.23%; in experiment [6], 52%.

The values are drawn from doi:10.1101/2024.08.13.607785v1 (biorxiv, 2024).
